Laboratory results from patent US9549930B2, “Combined systemic and topical treatment of disordered and/or prodromal stage tissue” (priority 2013, dated 2017).

Experiments:
[1] = cited from earlier work
Herpes Zoster (HZV) = test: Case histories: systemic anti-viral drug alone for shingles; assay type: in vivo, human
Text: A person with a clinical history of recurrent Herpes Zoster (HZV) (or in layman's terms, shingles) experienced a recurrent outbreak after a stressful week at work and a weekend in the sun following a trip to a tanning booth. (It is known that stress and UV-B can both trigger herpetic outbreaks.) This subject had their first episode with HZV about one year prior. They were diagnosed by their physician and given a prescription for Zovirax (acyclovir). They took the Zovirax, but experienced lesions lasting 3-4 weeks and experienced over 12 weeks of post-herpetic neuralgia. The previous episode included all the classic stages, including weeping, but only involved several very small lesions.
A person was vacationing in California when they developed a red rash and subsequent lesions on their right buttock. They were diagnosed with herpes zoster (shingles) on day 2, after first signs and symptoms were noted, and was prescribed valacyclovir (Valtrex) per label.
As […] to get to their home from California, they and their spouse elected to extend their time in California.
The patient initially went to the doctor in the early stages of the infection when it was only on their leg. The doctor diagnosed the condition as shingles and prescribed the patient Valtrex. […] The bumps were smaller but they kept spreading. The doctor advised them to keep taking the Valtrex. Once the patient finished the first prescription of Valtrex, the doctor provided a second Valtrex prescription. […] The sores remained the same size although the sores on the patient's leg were much larger than on their lower trunk.
A person had shingles on their neck and shoulders. Their sibling is a physician and diagnosed shingles and prescribed a nucleoside drug according to FDA approved labeling. The lesions had started to propagate down the affected dermatomes of the shoulder and neck. The lesions continued to progress despite anti-viral therapy.

[2] = cited from earlier work; remark: listed apart in the source
[3] = Example 4, person, first HZV episode, Zovirax alone

| SMILES | bioavailability ([1]; oral administration, shown in U.S. Pat. No. 4,957,924) | state on day 18 after first signs, after completed regimen (Herpes Zoster (HZV); Example 6, Valtrex regimen as prescribed) | effect on shingles initially (Herpes Zoster (HZV); Example 6, person, Valtrex per label from day 2) | state of sores after first prescription finished (Herpes Zoster (HZV); Example 8, Valtrex alone) | course of lesions shortly after first doses (Herpes Zoster (HZV); Example 8, person, Valtrex alone) | absorption from the gastrointestinal tract ([1]; after oral administration) | solubility in water [2] | duration of post-herpetic neuralgia (Herpes Zoster (HZV); [3]) | lesions lasting (Herpes Zoster (HZV); [3]) |
| --- | --- | --- | --- | --- | --- | --- | --- | --- | --- |
| CC(C)[C@H](N)C(=O)OCCOCn1cnc2c(=O)[nH]c(N)nc21 [Valtrex] | improved bioavailability | still had open herpetic lesions | little noticeable effect initially | still open and large | the lesions spread up the patient's leg and to their lower trunk | – | – | – | – |
| Nc1nc2c(ncn2COCCO)c(=O)[nH]1 [Aciclovir, 9-(2-hydroxyethoxymethyl)guanine] | – | – | – | – | – | poorly absorbed | poorly soluble in water | over 12 weeks | 3-4 weeks |
